# Several values for one entry are separate records, joined by “and”; a condition that tells them apart may be missing. Equal values may be shown once.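 48-hour exposure; five concentrations; linearly interpolated endpoints. GI50 marks 50% less growth. TGI marks complete inhibition of growth.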 Where a SMILES comes first, the peptide text is derived from it. [ ]: non-standard residue; d: D form. The star is where a group is joined. ξ: configuration not given here. dIva = CC[C@@](C)(N)C(=O)O; Aib = CC(C)(N)C(=O)O; ξP = O=C(O)C1CCCN1; βAla = NCCC(=O)O; X5 = OCN*
# Columns and labels:
# Assay in all cases: DTP human tumour cell line panel, 48 h
# 786-0 renal = tested on: 786-0 renal
# A498 renal = tested on: A498 renal
# COLO 205 colon = tested on: COLO 205 colon
# HCC-2998 colon = tested on: HCC-2998 colon
# MDA-MB-435 = tested on: MDA-MB-435
# OVCAR-4 ovarian = tested on: OVCAR-4 ovarian
# RXF 393 renal = tested on: RXF 393 renal
# SF-295 CNS = tested on: SF-295 CNS
# U251 CNS = tested on: U251 CNS
# UACC-62 melanoma = tested on: UACC-62 melanoma
Compound,GI50 (786-0 renal),TGI (786-0 renal),GI50 (A498 renal),TGI (A498 renal),GI50 (COLO 205 colon),TGI (COLO 205 colon),GI50 (HCC-2998 colon),TGI (HCC-2998 colon),GI50 (MDA-MB-435),TGI (MDA-MB-435),GI50 (OVCAR-4 ovarian),TGI (OVCAR-4 ovarian),GI50 (RXF 393 renal),TGI (RXF 393 renal),GI50 (SF-295 CNS),TGI (SF-295 CNS),GI50 (U251 CNS),TGI (U251 CNS),GI50 (UACC-62 melanoma),TGI (UACC-62 melanoma)
NC(N)=N/N=C/c1ccc(Br)cc1,5.11 µM,17.7 µM,3.57 µM,13.7 µM,2.99 µM,7.21 µM,1.14 µM,3.16 µM,1.07 µM,3.81 µM,10.3 µM,31.6 µM,3.68 µM,12.3 µM,2.95 µM,11.8 µM,3.58 µM,15.4 µM,5.36 µM,17.8 µM
N#CC(CC(=O)O)=C(c1ccccc1)c1ccccc1,,> 100 µM,,> 100 µM,,> 100 µM,,> 100 µM,,> 100 µM,,> 100 µM,,,,> 100 µM,,> 100 µM,,> 100 µM
O=S1(=O)C=C(c2ccccc2)C(c2ccccc2)=C1,1.49 µM,2.82 µM,1.47 µM,3.25 µM,1.77 µM,3.61 µM,1.71 µM,3.16 µM,1.41 µM,3.33 µM,1.9 µM,3.82 µM,1.62 µM,3 µM,2.06 µM,6.3 µM,1.54 µM,2.88 µM,1.73 µM,3.64 µM
CCCCCCCCCCCCCCCC(N)c1ccccc1 (stereo not drawn),1.68 µM,3.27 µM,,,1.68 µM,3.14 µM,1.67 µM,3.28 µM,1.61 µM,3.04 µM,1.67 µM,3.45 µM,1.71 µM,3.41 µM,1.73 µM,3.35 µM,1.68 µM,3.2 µM,1.66 µM,3.21 µM
NS(=O)(=O)c1ccc(N=Nc2c(=O)[nH]c3ccc4[nH]cccc4c23)cc1,0.577 µM,> 25 µM,0.671 µM,1.45 µM,0.376 µM,0.913 µM,0.398 µM,2 µM,0.553 µM,> 25 µM,0.409 µM,> 6.68 µM,0.15 µM,0.449 µM,0.883 µM,> 25 µM,0.313 µM,> 25 µM,0.487 µM,1.62 µM
CCCC(CCC)C(=O)O,> 20000 µM,> 20000 µM,> 100 µM,> 100 µM and 4830 µM,> 100 µM,> 100 µM and 10300 µM,> 100 µM,> 100 µM and 16700 µM,> 100 µM,> 20000 µM,> 100 µM,> 20000 µM,> 100 µM,> 100 µM and 14600 µM,> 100 µM,> 20000 µM,> 100 µM,> 20000 µM,> 100 µM,> 20000 µM
CC(=O)N1c2ccc(-c3ccc(C(=O)O)cc3)cc2[C@H](Nc2ccc(Cl)cc2)C[C@@H]1C,0.125 µM,40.2 µM,0.0667 µM,1.71 µM,0.0615 µM,12.8 µM,0.371 µM,7.81 µM,0.233 µM,> 56 µM,0.686 µM,> 100 µM,5.41 µM,40.9 µM,0.477 µM,18.1 µM,1.55 µM,32.9 µM,0.0261 µM,11.5 µM
COc1cc(OC)c2c(c1Cl)O[C@]1(C2=O)C(OCc2ccccc2)=CC(=O)C[C@H]1C,0.944 µM,79.7 µM,0.413 µM,5.58 µM,0.43 µM,1.69 µM,1.49 µM,7.03 µM,0.23 µM,0.549 µM,7.16 µM,73.3 µM,0.899 µM,29.1 µM,0.492 µM,5.59 µM,,,0.72 µM,18.6 µM
CCC(=O)OCN1C(=O)C=CC1=O,21.7 µM,41.4 µM and 11.3 µM,> 100 µM,> 100 µM,1.84 µM,3.56 µM and 11.3 µM,,34.1 µM and 33.6 µM,17.4 µM,32.8 µM and 28.5 µM,21.2 µM,39.5 µM and 34.5 µM,,30.6 µM and 30.5 µM,18.4 µM,35.2 µM and > 66.6 µM,,31.1 µM and 31.6 µM,,31.8 µM and 30.7 µM
COc1ccc2c(c1)C(=O)c1c-2n(CCCNCCO)c(=O)c2cc([N+](=O)[O-])ccc12,< 0.01 µM,< 0.01 µM,< 0.015 µM,< 0.0482 µM,0.018 µM,2.01 µM,< 0.0232 µM,0.557 µM,< 0.01 µM,1.06 µM,0.0361 µM,1.19 µM,,,< 0.01 µM,0.0115 µM,< 0.01 µM,1.03 µM,,
O=C(N/N=C/c1cccc(O)c1)c1ccc(C(F)(F)F)nc1Nc1cccc(C(F)(F)F)c1,1.92 µM,5.17 µM,1.59 µM,5.65 µM,1.44 µM,2.94 µM,1.02 µM,3.42 µM,1.65 µM,4.23 µM,0.955 µM,22.8 µM,1.13 µM,8.85 µM,,,1.74 µM,6.65 µM,1.81 µM,4.12 µM
O=C(CN1CCN(c2ccccn2)CC1)Nc1ccc(Cl)cc1C(=O)c1ccccc1Cl,1.57 µM,> 100 µM,24.5 µM,> 100 µM,> 100 µM,> 100 µM,> 100 µM,> 100 µM,28.4 µM,> 100 µM,13.9 µM,> 100 µM,> 100 µM,> 100 µM,30.5 µM,> 100 µM,> 100 µM,> 100 µM,12.8 µM,> 100 µM
COC(=O)CCc1c(/C=C2\N=C(c3ccc[nH]3)C=C2OC)[nH]c(C)c1C(=O)OCc1ccccc1,0.159 µM,1.3 µM,0.289 µM,3.37 µM,0.341 µM,2.03 µM,0.404 µM,6.04 µM,0.409 µM,2.25 µM,0.331 µM,> 100 µM,0.549 µM,3.38 µM,0.384 µM,1.73 µM,0.36 µM,2.28 µM,0.216 µM,0.491 µM
CN1CCN(Cc2ccc(NC(=O)c3[nH]ncc3Nc3cc(OC4CCCC4)ncn3)cc2)CC1,1.35 µM,3.1 µM,6.37 µM,19.4 µM,1.24 µM,3.11 µM,3.1 µM,10.5 µM,1.84 µM,8.32 µM,2.07 µM,7.18 µM,1.36 µM,2.91 µM,2.93 µM,12.5 µM,3.38 µM,12.7 µM,3.44 µM,11.1 µM
CN1C(=O)C(C)(C)Oc2c(-c3cn(C)c(=O)c4[nH]ccc34)cc(S(C)(=O)=O)cc21,2.06 µM,> 100 µM,1.11 µM,5.98 µM,0.469 µM,10.5 µM,1.24 µM,2.86 µM,0.637 µM,> 100 µM,0.741 µM,33.6 µM,1.59 µM,7.12 µM,2.68 µM,> 100 µM,1.52 µM,> 100 µM,0.39 µM,11.8 µM
CC(C)Cn1cnc2c(SCc3ccccn3)nc(N)nc21,,> 100 µM,,> 100 µM,,> 100 µM,,> 100 µM,,> 100 µM,,> 100 µM,,> 100 µM,,> 100 µM,,> 100 µM,,> 100 µM
CSc1nc(-c2cccc(NC(=O)CCl)c2)c(C#N)c(=O)n1C,1.75 µM,3.45 µM,5.51 µM,32.9 µM,1.7 µM,3.94 µM,1.96 µM,3.8 µM,2.06 µM,5.98 µM,1.43 µM,3.32 µM,1.54 µM,3.03 µM,1.7 µM,3.22 µM,1.35 µM,3.07 µM,1.5 µM,3.73 µM
CNCC1CCn2c(c(C3=C(c4cn(C)c5ccccc45)C(=O)NC3=O)c3ccccc32)C1 (stereo not drawn),4.88 µM,11 µM,5.65 µM,14.5 µM,1.47 µM,4.77 µM,3.76 µM,7.77 µM,2.75 µM,5.94 µM,4.17 µM,15.5 µM,3.09 µM,6.78 µM,2.49 µM,6.38 µM,2.64 µM,5.91 µM,3.16 µM,6.48 µM
CC[C@@](C)(NC(=O)[C@H](C)NC(=O)CCNC(=O)C(C)(C)NC(=O)[C@H](C)NC(=O)[C@@H]1CCCN1C(=O)[C@@](C)(CC)NC(=O)[C@H](Cc1ccccc1)NC(=O)C1CCCN1C(=O)C(C)(C)NC(=O)C1CCCN1C(=O)C(C)(C)NC(C)=O)C(=O)NCCC(=O)N[C@@H](CC(C)C)C(=O)NC(C)(C)C(=O)NCCC(=O)N[C@@H](CC(C)C)C(=O)NC(C)(C)C(=O)NC(C)(C)C(=O)N[C@@H](CC(C)C)C(=O)NCCC(=O)NCO (stereo partly drawn) (Ac-[Aib][ξP][Aib][ξP]F[dIva]PA[Aib][βAla]A[dIva][βAla]L[Aib][βAla]L[Aib][Aib]L[βAla]-X5),0.203 µM,0.414 µM,0.19 µM,0.412 µM,0.0681 µM,0.248 µM,0.145 µM,0.351 µM,0.142 µM,0.357 µM,0.132 µM,0.346 µM,0.221 µM,0.436 µM,0.0539 µM,0.213 µM,0.0814 µM,0.268 µM,0.258 µM,0.503 µM
C=C1C(OCCO)OC2O[C@]3(C)CCC4[C@H](C)CCC1C24OO3 (stereo partly drawn),24.5 µM,> 100 µM,> 100 µM,> 100 µM,2.87 µM,14.3 µM,> 100 µM,> 100 µM,12.9 µM,83.6 µM,6.12 µM,> 100 µM,,,> 100 µM,> 100 µM,35 µM,> 100 µM,42.7 µM,> 100 µM
CC(C)CC1NC(=O)C(C(C)C)NC(=O)CC(C)COC(=O)C(CC(C)C)N(C)C(=O)C(C(C)C)NC(=O)C(C(C)C)OC1=O (stereo not drawn),,> 50 µM,,> 50 µM,,> 50 µM,,> 50 µM,,> 50 µM,,,,35.2 µM,,> 50 µM,,> 50 µM,,> 50 µM
COc1ccc(OC)c(/C=C/C(=O)c2ccc3cc(OC)ccc3c2)c1,> 11.7 µM,> 50 µM,12.2 µM,> 31.9 µM,6.81 µM,> 14.8 µM,0.795 µM,2.44 µM,0.641 µM,1.88 µM,10.8 µM,> 50 µM,,,1.5 µM,12.2 µM,7.19 µM,> 50 µM,5.52 µM,> 12.2 µM
COc1ccc2c(c1)O/C(=C\c1ccc([N+](=O)[O-])s1)C2=O,11.4 µM,> 71.6 µM,> 27.4 µM,> 75.7 µM,1.88 µM,> 100 µM,2.91 µM,> 100 µM,> 100 µM,> 100 µM,1.59 µM,4.91 µM,1.85 µM,> 20.8 µM,,> 47.4 µM,2.07 µM,> 20.9 µM,,
COn1cc(C(=O)N=C(SC)SC)c2ccccc21,20.4 µM,46.9 µM,,,30.2 µM,> 100 µM,19.8 µM,36.8 µM,14 µM,39.7 µM,> 100 µM,> 100 µM,25 µM,96.2 µM,16.8 µM,55.4 µM,22.3 µM,70.6 µM,20.2 µM,55.8 µM
CCCNC(=O)Nc1ccc2c(c1)Cc1cc(N(CCCl)CCCl)ccc1-2,,> 100 µM,,33.4 µM,,26.7 µM,,67.6 µM,,68.9 µM,,,,34.2 µM,,44.2 µM,,> 100 µM,,> 100 µM
O=C(Nc1ccc(N2CCNCC2)cn1)c1[nH]ncc1Nc1ncnc2sc3c(c12)CCC3,1.41 µM,2.98 µM,5.06 µM,24.6 µM,2.11 µM,6.97 µM,14.1 µM,36.2 µM,1.13 µM,2.67 µM,,,,,4.31 µM,23.9 µM,,,1.98 µM,4.2 µM

# — PubChem BioAssay (NCI)
